From ChEMBL document CHEMBL1134238, “Synthesis of metabolically blocked paclitaxel analogues” (Bioorg Med Chem Lett, 2001)

Tests used:
HCT-116 = assay: Compound was tested for cytotoxicity against human colon tumor cell line (HCT116); format: functional, cell-based
[1] = target: Tubulin alpha chain (Sus scrofa) (UniProt P02550); assay: Compound was tested in vitro for inhibition of tubulin polymerization, expressed as ratio to that obtained for paclitaxel; format: functional; settings: Homo sapiens
Tubulin alpha chain (Sus scrofa), sequence (P02550 whole entry, looked up): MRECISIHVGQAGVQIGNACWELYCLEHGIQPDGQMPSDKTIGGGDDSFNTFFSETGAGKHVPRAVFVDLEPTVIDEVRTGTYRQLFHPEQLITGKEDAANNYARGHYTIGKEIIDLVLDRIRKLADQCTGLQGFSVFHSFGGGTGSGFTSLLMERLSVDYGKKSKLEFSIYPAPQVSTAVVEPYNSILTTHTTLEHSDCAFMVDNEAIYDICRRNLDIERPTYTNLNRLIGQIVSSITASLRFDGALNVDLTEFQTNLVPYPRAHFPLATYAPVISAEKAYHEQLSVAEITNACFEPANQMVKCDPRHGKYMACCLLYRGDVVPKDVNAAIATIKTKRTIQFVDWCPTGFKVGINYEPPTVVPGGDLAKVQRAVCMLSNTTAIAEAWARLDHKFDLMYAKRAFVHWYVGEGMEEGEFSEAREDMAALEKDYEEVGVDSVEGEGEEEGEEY

M109 [2] = assay: Compound was tested in vivo against M109 using Madison murine lung carcinoma (M109) tumor model at 40 mg/kg; format: functional, Mus musculus
M109 [3] = assay: Compound was tested in vivo against M109 using Madison murine lung carcinoma (M109) tumor model at 32 mg/kg; format: functional, Mus musculus
M109 [4] = assay: Compound was tested in vivo against M109 using Madison murine lung carcinoma (M109) tumor model at 200 mg/kg; format: functional, Mus musculus

Row | Tubulin polymerization [1] | SMILES | IC50 (HCT-116) | T/C (M109 [2]) | T/C (M109 [3]) | T/C (M109 [4])
1 | 1 | CC(=O)O[C@H]1C(=O)[C@@]2(C)[C@H]([C@H](OC(=O)c3ccccc3)[C@]3(O)C[C@H](OC(=O)[C@H](O)[C@@H](NC(=O)c4ccccc4)c4ccccc4)C(C)=C1C3(C)C)[C@]1(OC(C)=O)CO[C@@H]1C[C@@H]2O [PACLITAXEL] |  | 215% |  | 
2 | 1.1 | CC(=O)O[C@H]1C(=O)[C@@]2(C)C([C@H](OC(=O)c3ccccc3)[C@]3(O)C[C@H](OC(=O)[C@H](O)[C@@H](NC(=O)c4ccccc4)c4ccccc4)C(C)=C1C3(C)C)[C@]1(OC(C)=O)CO[C@@H]1[C@@H](Br)[C@@H]2O (some centres undefined) | 2.6 nM |  |  | 
3 | 0.7 | CC(=O)O[C@H]1C(=O)[C@@]2(C)C([C@H](OC(=O)c3ccccc3)[C@]3(O)C[C@H](OC(=O)[C@H](O)[C@@H](NC(=O)OC(C)(C)C)c4ccccc4)C(C)=C1C3(C)C)[C@]1(OC(C)=O)CO[C@@H]1C[C@@H]2O (some centres undefined) | 1.8 nM |  | 177% | 
4 | 0.8 | CC(=O)O[C@H]1C(=O)[C@@]2(C)C([C@H](OC(=O)c3ccccc3)[C@]3(O)C[C@H](OC(=O)[C@H](O)[C@@H](NC(=O)c4ccccc4)c4ccccc4)C(C)=C1C3(C)C)[C@]1(OC(C)=O)CO[C@@H]1[C@@H](Cl)[C@@H]2O (some centres undefined) | 1.2 nM |  |  | 203%

Row | SMILES | Tubulin polymerization [1] | IC50 (HCT-116) | T/C (M109 [2]) | T/C (M109 [3]) | T/C (M109 [4])
5 | CC(=O)O[C@H]1C(=O)[C@@]2(C)C([C@H](OC(=O)c3ccccc3)[C@]3(O)C[C@H](OC(=O)[C@H](O)[C@@H](NC(=O)c4ccccc4)c4ccccc4)C(C)=C1C3(C)C)[C@]1(OC(C)=O)CO[C@@H]1[C@@H](F)[C@@H]2O (some centres undefined) | 1 | 1.4 nM |  |  | 
6 | CC(=O)O[C@H]1C(=O)[C@@]2(C)C([C@H](OC(=O)c3ccccc3)[C@]3(O)C[C@H](OC(=O)[C@H](O)[C@@H](NC(=O)OC(C)(C)C)c4ccccc4)C(C)=C1C3(C)C)[C@]1(OC(C)=O)CO[C@@H]1[C@@H](F)[C@@H]2O (some centres undefined) | 0.6 | 0.2 nM |  |  | 
